Assay: Taste evaluation by a panel of experienced tasters in Kikkoman low salt soy sauce
Conditions: 0.25 ppm dosed to Kikkoman low salt soy sauce (1 g salt/100 ml)
Experimental: Blanco Verdunde Kikkoman low Salt 1 g Salt/100 ml
The samples were evaluated by a panel of experienced tasters.

| SMILES | taste of the sample as agreed by the panel |
| --- | --- |
| CCCCCCCCCCCCCCCC(=O)NC(C)(C)C(=O)O [2-methyl-2-palmitamidopropanoic acid, 2-methyl-2-palmitamidopropanoic Acid] | strong salty, more upfront, fermented, slightly bitter and sweet |
| CCCCCCCCCCCCCCCCCC(=O)NC(C)(C)C(=O)O [2-methyl-2-stearamidopropanoic acid, 2-methyl-2-stearamidopropanoic Acid] | salty upfront, no aftertaste expanding, bitter aftertaste not negative, more upfront salty, not as bitter and sweet, fermented |
| CCCCCCCC/C=C\CCCCCCCC(=O)NC(C)(C)C(=O)O [2-methyl-2-oleamidopropanoic acid, 2-methyl-2-oleamidopropanoic Acid] | cleaner, more upfront body, salty, less fermented, more upfront, more salty bitter and sweet, fermented |
